# In ChEMBL document CHEMBL1201862, “PubChem BioAssay data set” (2004):
# Calls of active or inactive are those of the source.
# Legend:
# [1] = target: Glycogen synthase kinase-3 beta (Homo sapiens, UniProt P49841); experiment: GSK3beta kinase inhibitors, dose response, biochemical, microfluidics, dry powder samples, set 2 (AID 623989); type: functional
# [2] = target: Glycogen synthase kinase-3 alpha (Homo sapiens, UniProt P49840); experiment: human GSK3 alpha kinase inhibition, dose response, selectivity assay for GSK3beta inhibitor project, biochemical, microfluidics, dry powder samples, set 2 (AID 623978); type: functional
# [3] = target: Serine/threonine-protein kinase pim-3 (Homo sapiens, UniProt Q86V86); type: functional;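 also: value obtained as one member of a broad kinase panel profiling effort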
# [4] = target: Dual specificity protein kinase CLK4 (Homo sapiens, UniProt Q9HAZ1); type: functional
# [5] = target: Serine/threonine-protein kinase pim-1 (Homo sapiens, UniProt P11309); type: functional
# Chain of Serine/threonine-protein kinase pim-1 (P11309 whole entry, canonical isoform): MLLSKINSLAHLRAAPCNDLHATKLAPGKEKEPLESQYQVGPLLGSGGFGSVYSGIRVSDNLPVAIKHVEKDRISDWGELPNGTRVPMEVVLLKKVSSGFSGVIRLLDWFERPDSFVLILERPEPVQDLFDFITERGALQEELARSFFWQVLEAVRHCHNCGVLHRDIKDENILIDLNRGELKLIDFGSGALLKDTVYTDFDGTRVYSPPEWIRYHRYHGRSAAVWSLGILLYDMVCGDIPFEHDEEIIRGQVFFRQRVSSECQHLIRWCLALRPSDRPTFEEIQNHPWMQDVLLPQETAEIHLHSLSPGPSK
# [6] = target: Casein kinase I isoform delta (Homo sapiens, UniProt P48730); type: functional;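 also: measured as one member (CSNK1D) of a kinome panel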
# Chain of Casein kinase I isoform delta (P48730 whole entry, canonical isoform): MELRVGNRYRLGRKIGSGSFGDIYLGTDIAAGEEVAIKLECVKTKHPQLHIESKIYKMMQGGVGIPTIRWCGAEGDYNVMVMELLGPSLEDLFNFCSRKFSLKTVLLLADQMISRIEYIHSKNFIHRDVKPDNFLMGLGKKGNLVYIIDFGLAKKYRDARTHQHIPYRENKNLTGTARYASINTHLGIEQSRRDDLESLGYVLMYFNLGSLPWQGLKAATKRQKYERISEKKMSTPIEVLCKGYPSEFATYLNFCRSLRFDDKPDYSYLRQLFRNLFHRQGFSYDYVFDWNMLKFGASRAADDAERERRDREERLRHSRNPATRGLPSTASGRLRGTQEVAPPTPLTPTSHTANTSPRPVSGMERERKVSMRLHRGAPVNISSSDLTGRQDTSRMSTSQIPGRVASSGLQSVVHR
# [7] = target: Dual specificity tyrosine-phosphorylation-regulated kinase 1A (Homo sapiens, UniProt Q13627); type: functional;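 also: measured against DYRK1A as one member of a broad kinome profiling panel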
# [8] = target: Casein kinase II subunit alpha (Homo sapiens, UniProt P68400); type: functional
# Chain of Casein kinase II subunit alpha (P68400 whole entry): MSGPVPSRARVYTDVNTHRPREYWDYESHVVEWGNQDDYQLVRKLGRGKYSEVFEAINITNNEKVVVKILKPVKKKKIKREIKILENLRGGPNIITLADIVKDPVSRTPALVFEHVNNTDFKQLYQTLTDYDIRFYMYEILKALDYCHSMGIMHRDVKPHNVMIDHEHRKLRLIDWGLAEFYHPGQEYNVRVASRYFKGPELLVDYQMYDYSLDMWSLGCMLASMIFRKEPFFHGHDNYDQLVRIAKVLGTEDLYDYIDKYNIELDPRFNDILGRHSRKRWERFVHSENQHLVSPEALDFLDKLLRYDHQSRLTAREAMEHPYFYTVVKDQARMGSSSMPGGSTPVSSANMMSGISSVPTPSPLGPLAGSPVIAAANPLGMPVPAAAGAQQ
# [9] = target: Mitogen-activated protein kinase kinase kinase kinase 4 (Homo sapiens, UniProt O95819); type: functional
# [10] = target: T1, Neuropeptides B/W receptor type 1 (Homo sapiens, UniProt P48145); experiment: GPR7 antagonist potency, late-stage follow-up, cell-based, fluorescence, dose response, set 6 (AID 588583); type: functional
# T1 sequence (P48145 whole entry): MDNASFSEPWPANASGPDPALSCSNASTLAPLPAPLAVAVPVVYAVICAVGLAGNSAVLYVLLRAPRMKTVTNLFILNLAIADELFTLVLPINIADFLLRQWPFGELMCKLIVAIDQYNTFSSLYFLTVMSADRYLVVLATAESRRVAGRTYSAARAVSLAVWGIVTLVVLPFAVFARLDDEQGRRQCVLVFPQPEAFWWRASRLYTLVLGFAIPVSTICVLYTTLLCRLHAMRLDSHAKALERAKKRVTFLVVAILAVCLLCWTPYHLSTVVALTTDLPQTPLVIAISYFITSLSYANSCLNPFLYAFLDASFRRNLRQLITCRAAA
# [11] = target: Melanin-concentrating hormone receptor 1 (Homo sapiens, UniProt Q99705); experiment: Late-stage fluorescence-based counterscreen for antagonists of the G-protein coupled receptor 7 (GPR7): cell-based dose response assay to identify antagonists of the melanin-concentrating hormone receptor 1 (MCHR1) Set 6.; type: functional
# [12] = target: 72 kDa type IV collagenase (Homo sapiens, UniProt P08253); experiment: Dose Response validation of uHTS RPN11 inhibitor hits using a MMP-2 Fluorescence assay.; type: functional
# [13] = target: T2, Polyadenylate-binding protein 1 (Homo sapiens, UniProt P11940); experiment: PABP1 MLLE–PAM2 interaction inhibitors, dose response, miRNA deadenylation inhibitor project, biochemical, fluorescence polarization, Cy5-PAM2 peptide, secondary (AID 602260); type: functional; settings: read-out: IC50_Mean
# T2 sequence (P11940 whole entry): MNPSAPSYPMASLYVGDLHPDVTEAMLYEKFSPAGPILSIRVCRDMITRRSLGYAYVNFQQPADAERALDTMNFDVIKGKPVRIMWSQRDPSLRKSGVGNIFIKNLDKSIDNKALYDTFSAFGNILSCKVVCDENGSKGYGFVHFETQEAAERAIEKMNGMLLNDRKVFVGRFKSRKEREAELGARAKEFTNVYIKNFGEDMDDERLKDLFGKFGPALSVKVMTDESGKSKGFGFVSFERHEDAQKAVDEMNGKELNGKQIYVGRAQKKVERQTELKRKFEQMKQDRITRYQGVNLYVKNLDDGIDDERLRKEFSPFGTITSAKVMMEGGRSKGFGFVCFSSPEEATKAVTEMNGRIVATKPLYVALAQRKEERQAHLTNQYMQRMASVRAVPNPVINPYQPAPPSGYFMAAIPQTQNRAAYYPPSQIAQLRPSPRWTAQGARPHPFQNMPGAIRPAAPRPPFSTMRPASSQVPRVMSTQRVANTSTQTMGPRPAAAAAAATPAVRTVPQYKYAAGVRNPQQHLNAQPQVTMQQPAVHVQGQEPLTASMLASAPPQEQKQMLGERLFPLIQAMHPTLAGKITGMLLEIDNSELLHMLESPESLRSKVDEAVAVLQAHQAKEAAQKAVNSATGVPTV
# BJ [14] = experiment: cytotoxicity toward Ras-transformed BJeLR fibroblasts, dose response, cell-based, alamar blue fluorescence, cherrypicked samples (AID 2631); type: functional; settings: Homo sapiens;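 also: confirmatory dose-response assay in RAS-dependent BJ fibroblasts engineered with TERT, LT and ST, with cytotoxicity read by fluorescence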
# BJ [15] = experiment: cytotoxicity toward BJ-TERT fibroblasts, dose response, cell-based, RAS-independent, luminescence (AID 1933); type: functional; settings: Homo sapiens
# [16] = Luminescence Cell-Based Dose Response HTS to Identify Activators of Luciferase Translation or Activity in H4 […] Cells. [Related pubchem assays: 1829 (Project Summary), 1814 (Primary HTS)]; type: functional
# [17] = Luminescence-based dose response cell-based high throughput screening assay for cytotoxic compounds using the IEC-6 intestinal epithelial cell line. [Related pubchem assays: 1858 (Summary AID.), 1825 (Counterscreen.), 1907 (Confirmation screen.)]; type: functional
# Beta-galactosidase [18] = target: T3, Beta-galactosidase (Escherichia coli, UniProt Q8VNN2); type: functional
# T3 sequence (Q8VNN2 whole entry): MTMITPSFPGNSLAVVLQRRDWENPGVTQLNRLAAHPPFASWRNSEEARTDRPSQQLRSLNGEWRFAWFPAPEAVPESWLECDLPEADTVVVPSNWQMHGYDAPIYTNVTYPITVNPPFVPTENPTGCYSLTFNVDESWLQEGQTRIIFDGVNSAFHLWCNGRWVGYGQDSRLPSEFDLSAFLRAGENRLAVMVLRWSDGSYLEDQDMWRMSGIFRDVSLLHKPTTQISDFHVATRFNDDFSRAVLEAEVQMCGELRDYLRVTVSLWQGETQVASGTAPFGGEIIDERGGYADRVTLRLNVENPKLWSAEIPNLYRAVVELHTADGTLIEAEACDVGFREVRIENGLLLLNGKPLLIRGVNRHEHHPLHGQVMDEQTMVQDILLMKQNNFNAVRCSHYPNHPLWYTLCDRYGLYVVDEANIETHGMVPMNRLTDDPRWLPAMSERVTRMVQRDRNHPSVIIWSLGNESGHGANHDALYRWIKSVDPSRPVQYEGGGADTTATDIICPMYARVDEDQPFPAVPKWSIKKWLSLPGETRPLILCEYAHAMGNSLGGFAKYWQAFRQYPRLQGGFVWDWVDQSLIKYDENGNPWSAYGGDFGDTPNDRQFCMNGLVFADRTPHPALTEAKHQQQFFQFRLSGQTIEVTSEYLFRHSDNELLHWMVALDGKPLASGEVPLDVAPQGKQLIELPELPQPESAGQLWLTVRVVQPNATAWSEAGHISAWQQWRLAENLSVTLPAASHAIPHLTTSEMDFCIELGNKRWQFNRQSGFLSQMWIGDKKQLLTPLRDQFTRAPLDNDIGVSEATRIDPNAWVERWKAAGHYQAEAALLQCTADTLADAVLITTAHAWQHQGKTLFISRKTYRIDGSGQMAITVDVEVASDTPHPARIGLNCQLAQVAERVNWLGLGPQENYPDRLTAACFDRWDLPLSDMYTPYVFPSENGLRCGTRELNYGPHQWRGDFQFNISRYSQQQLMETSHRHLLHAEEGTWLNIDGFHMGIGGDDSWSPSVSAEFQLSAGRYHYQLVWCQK
# BJ [19] = experiment: cytotoxicity toward BJ-TERT-LT-ST fibroblasts, dose response, cell-based, RAS-independent, luminescence (AID 1935); type: functional; settings: Homo sapiens;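 also: BJ fibroblasts immortalized with TERT plus LT and ST oncogenes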
# BJ [20] = experiment: cells; type: functional, cell-based; settings: Homo sapiens
# H4 = experiment: Luminescence Cell-Based Dose Response HTS to Identify Activators of 5'UTR Stem-Loop Driven Prion Protein mRNA Translation in H4 Neuroglioblastoma Cells. [Related pubchem assays: 1829 (Project Summary), 1814 (Primary HTS)]; type: functional; settings: Homo sapiens
# Prothrombin = Prothrombin (Bos taurus, UniProt P00735); experiment: thrombin inhibition, dose response, biochemical, fluorescence polarization, uHTS hits (AID 602369); type: functional
# [21] = control 3'UTR Renilla luciferase suppression, dose response, counter-screen for Shn3 inhibitor project, cell-based, Clone20-Shn3RL, cherry-picked (AID 624133); type: functional
# Vero [22] = experiment: cells; type: functional; settings: Chlorocebus sabaeus
# Mu-type opioid receptor = Mu-type opioid receptor (Homo sapiens, UniProt P35372); experiment: HTS Image-Based Screen for Agonists of the MOR Receptor. [Related pubchem assays (depositor defined):AID1777, AID1785, AID1786, AID2133]; type: functional;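 also: imaging of beta-arrestin GFP recruitment into spots after receptor activation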
# Chain of Mu-type opioid receptor (P35372 whole entry): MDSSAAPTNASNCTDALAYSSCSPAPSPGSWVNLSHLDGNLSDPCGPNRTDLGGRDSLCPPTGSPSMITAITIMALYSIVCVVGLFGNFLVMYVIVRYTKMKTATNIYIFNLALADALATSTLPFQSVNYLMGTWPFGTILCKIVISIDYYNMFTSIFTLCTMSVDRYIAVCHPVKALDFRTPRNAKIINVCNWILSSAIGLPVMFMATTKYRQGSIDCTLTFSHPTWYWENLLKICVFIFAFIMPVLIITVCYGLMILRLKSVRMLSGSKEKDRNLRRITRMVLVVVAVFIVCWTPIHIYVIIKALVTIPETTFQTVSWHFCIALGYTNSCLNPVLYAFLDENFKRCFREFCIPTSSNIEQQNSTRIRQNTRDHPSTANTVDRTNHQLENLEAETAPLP
# [23] = cytotoxicity toward DRD oncogenic fibroblasts, dose response, cell-based, non-viral oncogenic, luminescence (AID 1934); type: functional; settings: Homo sapiens
# [24] = target: T4, Kappa-type opioid receptor (Homo sapiens, UniProt P41145); type: functional
# T4 sequence (P41145 whole entry): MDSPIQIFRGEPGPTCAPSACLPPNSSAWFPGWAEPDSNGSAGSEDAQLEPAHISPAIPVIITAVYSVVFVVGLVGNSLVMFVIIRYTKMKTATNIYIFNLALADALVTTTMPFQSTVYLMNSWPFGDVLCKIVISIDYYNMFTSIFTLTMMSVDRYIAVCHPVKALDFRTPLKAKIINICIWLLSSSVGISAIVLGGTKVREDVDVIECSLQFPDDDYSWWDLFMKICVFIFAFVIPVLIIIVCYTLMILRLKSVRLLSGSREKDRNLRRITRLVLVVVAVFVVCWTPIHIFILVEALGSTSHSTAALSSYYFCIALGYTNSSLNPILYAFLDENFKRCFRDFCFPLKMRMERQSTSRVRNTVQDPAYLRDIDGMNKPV
# [25] = target: 26S proteasome non-ATPase regulatory subunit 14 (Homo sapiens, UniProt O00487); experiment: inhibition of proteasome subunit RPN11 – biochemical, fluorescence polarization, uHTS hits, confirmation (AID 602368); type: functional
# Chain of 26S proteasome non-ATPase regulatory subunit 14 (O00487 whole entry): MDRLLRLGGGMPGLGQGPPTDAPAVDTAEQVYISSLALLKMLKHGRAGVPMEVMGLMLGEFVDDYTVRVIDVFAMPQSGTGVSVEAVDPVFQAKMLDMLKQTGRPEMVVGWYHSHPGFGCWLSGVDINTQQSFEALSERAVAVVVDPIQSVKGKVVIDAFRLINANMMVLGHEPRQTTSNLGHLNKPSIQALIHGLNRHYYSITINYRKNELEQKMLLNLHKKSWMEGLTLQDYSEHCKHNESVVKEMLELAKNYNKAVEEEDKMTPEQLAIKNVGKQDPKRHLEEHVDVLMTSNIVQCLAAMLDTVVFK
# [26] = target: T2, Polyadenylate-binding protein 1; experiment: PABP1 MLLE–PAM2 binding inhibitor potency, dose response, biochemical, fluorescence polarization, FITC-PAM2 peptide (AID 602259); type: functional; settings: read-out: IC50_Mean
# Vero [27] = experiment: cells; type: functional, cell-based; settings: Chlorocebus sabaeus
# [28] = NIH-3T3 fibroblast cytotoxicity, dose response, cytotoxicity control, cell-based, fluorescence, Alamar Blue, secondary assay (AID 2327); type: functional;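 also: NIH-3T3 mouse fibroblasts cultured with fluconazole at 8 µg/mL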
# [29] = Shn3 3'UTR reporter inhibitors, dose response, cell-based, Clone20 osteoblasts, firefly luciferase, cherry-picked (AID 624132); type: functional;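 also: firefly luciferase luminescence from reporter carrying the Shn3 3'UTR in osteoblasts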
# [30] = target: T5, Delta-type opioid receptor (Homo sapiens, UniProt P41143); experiment: HTS Image-Based Screen for Agonists of the DOR Receptor. [Related pubchem assays (depositor defined):AID1777, AID1786, AID2133]; type: functional
# T5 sequence (P41143 whole entry): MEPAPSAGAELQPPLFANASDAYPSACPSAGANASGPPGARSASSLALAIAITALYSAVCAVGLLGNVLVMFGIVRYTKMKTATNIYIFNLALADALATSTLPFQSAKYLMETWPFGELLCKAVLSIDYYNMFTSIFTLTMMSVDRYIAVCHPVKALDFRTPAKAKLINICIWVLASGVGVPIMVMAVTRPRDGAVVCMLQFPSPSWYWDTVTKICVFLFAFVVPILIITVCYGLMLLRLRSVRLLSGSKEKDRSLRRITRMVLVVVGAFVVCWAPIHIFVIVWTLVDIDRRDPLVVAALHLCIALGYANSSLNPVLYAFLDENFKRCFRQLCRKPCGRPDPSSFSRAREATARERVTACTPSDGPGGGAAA
# Beta-galactosidase [31] = target: T3, Beta-galactosidase; experiment: PubChem AID 485352; type: functional
# [32] = Luminescence Cell-Based Dose Confirmation HTS to Identify Activators of 5'UTR Stem-Loop Driven Alpha-Synuclein mRNA Translation in H4 Neuroglioblastoma Cells. [Related pubchem assays: 1829 (Project Summary), 1814 (Primary HTS)]; type: functional
# [33] = target: Type-1 angiotensin II receptor (Homo sapiens, UniProt P30556); experiment: AT1 receptor antagonists, dose response, selectivity assay for APJ receptor antagonist project, cell-based, uHTS hits (AID 463214); type: functional;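 also: antagonist potency against angiotensin II stimulated AT1 response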
# Chain of Type-1 angiotensin II receptor (P30556 whole entry): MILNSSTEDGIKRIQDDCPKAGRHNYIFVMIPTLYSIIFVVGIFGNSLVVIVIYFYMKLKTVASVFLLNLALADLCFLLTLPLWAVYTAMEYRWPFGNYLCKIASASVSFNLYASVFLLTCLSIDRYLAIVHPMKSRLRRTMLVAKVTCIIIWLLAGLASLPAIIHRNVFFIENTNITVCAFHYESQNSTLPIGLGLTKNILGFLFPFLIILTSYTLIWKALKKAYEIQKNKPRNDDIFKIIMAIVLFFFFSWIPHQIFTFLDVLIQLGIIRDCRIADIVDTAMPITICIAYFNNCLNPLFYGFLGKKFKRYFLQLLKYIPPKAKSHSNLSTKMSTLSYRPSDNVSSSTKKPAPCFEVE
# [34] = target: T5, Delta-type opioid receptor; experiment: HTS Image-Based Screen for Antagonists of the DOR Receptor. [Related pubchem assays (depositor defined):AID1777, AID1785, AID1786, AID2133]; type: functional
# [35] = cytotoxicity in HEK-293T cells, dose response, cytotoxicity control for TCR NF-kB inhibitor project, luminescence, T-cell screen hits (AID 489026); type: functional, cell-based;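 also: cells exposed to compound about 14 hours before the viability readout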
# [36] = target: T4, Kappa-type opioid receptor; type: functional; remark: listed apart in the source
# [37] = target: DNA dC->dU-editing enzyme APOBEC-3A (Homo sapiens, UniProt P31941); experiment: SAR analysis of small molecule inhibitors of APOBEC3A DNA Deaminase via a fluorescence-based single-stranded DNA deaminase assay - Set 2.; type: functional; settings: read-out: IC50_Mean
# Chain of DNA dC->dU-editing enzyme APOBEC-3A (P31941 whole entry): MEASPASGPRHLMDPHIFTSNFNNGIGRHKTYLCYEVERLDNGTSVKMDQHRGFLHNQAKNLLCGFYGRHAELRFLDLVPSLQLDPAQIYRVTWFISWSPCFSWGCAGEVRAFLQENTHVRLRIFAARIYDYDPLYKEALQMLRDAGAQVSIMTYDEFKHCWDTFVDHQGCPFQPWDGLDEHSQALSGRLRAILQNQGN
# [38] = target: DNA dC->dU-editing enzyme APOBEC-3G (Homo sapiens, UniProt Q9HC16); experiment: SAR analysis of small molecule inhibitors of APOBEC3G DNA Deaminase via a fluorescence-based single-stranded DNA deaminase assay - Set 2.; type: functional; settings: read-out: IC50_Mean
# [39] = target: Multidrug resistance protein CDR2 (Candida albicans (strain SC5314 / ATCC MYA-2876) (Yeast), UniProt P78595); experiment: CaCDR2 efflux pump inhibitors in yeast, dose response, S. cerevisiae AD1-8u, singleplex, Cherry Pick1 hits (AID 588604); type: functional
# [40] = SAR analysis of small molecule activators of Apaf-1 using a LZ-Caspase-9/Caspase-3 Fluorescent Selectivity assay - Set 2.; type: functional; settings: read-out: EC50_Mean
# [41] = target: T6, Apoptotic protease-activating factor 1 (Homo sapiens, UniProt O14727); experiment: SAR analysis of small molecule Activators of Apaf-1 in a Fluorescent assay - set 2.; type: functional; settings: read-out: EC50_Mean
# T6 sequence (O14727 whole entry): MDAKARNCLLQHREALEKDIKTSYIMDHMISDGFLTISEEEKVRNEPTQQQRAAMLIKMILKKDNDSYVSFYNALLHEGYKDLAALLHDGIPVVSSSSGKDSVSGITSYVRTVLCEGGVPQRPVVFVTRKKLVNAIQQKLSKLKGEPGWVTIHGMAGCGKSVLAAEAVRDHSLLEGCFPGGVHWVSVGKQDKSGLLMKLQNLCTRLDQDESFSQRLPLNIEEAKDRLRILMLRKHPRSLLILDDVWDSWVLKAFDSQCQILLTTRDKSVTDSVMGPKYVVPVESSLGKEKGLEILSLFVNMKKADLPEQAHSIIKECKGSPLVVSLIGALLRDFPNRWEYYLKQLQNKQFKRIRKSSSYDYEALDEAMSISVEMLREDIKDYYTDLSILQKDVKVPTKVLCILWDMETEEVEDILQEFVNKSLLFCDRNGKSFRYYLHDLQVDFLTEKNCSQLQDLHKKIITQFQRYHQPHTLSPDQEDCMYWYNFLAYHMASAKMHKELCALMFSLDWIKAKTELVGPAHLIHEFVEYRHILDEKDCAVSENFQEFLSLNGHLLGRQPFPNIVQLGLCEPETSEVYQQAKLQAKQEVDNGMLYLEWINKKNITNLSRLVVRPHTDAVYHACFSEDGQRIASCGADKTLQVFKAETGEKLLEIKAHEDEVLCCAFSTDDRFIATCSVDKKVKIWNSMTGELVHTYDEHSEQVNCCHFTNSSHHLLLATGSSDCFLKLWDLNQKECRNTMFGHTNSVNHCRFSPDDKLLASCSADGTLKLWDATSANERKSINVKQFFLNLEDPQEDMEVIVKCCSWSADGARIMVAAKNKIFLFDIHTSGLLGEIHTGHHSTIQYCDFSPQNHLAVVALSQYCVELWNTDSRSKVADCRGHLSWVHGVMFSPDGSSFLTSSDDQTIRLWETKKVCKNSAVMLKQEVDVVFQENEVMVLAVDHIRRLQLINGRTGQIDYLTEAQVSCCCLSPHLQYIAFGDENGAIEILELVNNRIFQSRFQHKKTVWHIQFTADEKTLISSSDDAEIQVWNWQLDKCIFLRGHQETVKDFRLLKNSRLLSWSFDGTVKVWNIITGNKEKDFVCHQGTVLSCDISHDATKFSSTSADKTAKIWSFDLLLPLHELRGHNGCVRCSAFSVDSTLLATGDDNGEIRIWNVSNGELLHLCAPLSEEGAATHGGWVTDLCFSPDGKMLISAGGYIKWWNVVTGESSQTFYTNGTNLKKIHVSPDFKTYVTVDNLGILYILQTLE
smiles,measurement,setting,value
Cc1cccc(OCC(=O)Nc2ccc3c(c2)C(=O)NC3=O)c1,AC50,[1],1.36 µM (active)
same,AC50,[2],8 µM (active)
O=c1oc2ccccc2c2[nH]c(-c3ccccc3)nc12,Ki,[3],1.58 µM (active)
same,Ki,[4],1.26 µM (active)
same,Ki,[5],1 µM (active)
same,Ki,[6],6.31 µM (active)
same,Ki,[7],1.58 µM (active)
same,Ki,[8],2 µM (active)
same,Ki,[9],5.01 µM (active)
N#CC(c1ccc([N+](=O)[O-])cc1)c1c(Cl)cnn(Cc2cccc3ccccc23)c1=O (centres undefined),IC50,[10],0.303 µM (active)
same,IC50,[11],0.303 µM (active)
O=C(Sc1cccc2cccnc12)c1ccccc1Br,IC50,[12],> 100 µM (inactive)
same,IC50,[13],> 66 µM (inactive)
same,EC50,BJ [14],0.328 µM (active)
same,EC50,BJ [15],12.7 µM (active)
same,EC50,[16],> 120 µM (not active)
same,IC50,[17],0.514 µM (active)
same,EC50,Beta-galactosidase [18],> 31.5 µM (inactive)
same,EC50,BJ [19],36.8 µM (active)
same,EC50,BJ [20],> 150 µM (inconclusive)
same,EC50,H4,> 120 µM (not active)
same,IC50,Prothrombin,> 100 µM (inactive)
same,AC50,[21],13.3 µM (active)
same,CC50,Vero [22],9.91 µM (active)
same,EC50,Mu-type opioid receptor,> 32 µM (inactive)
same,EC50,[23],2.48 µM (active)
same,IC50,[24],10.5 µM (active)
same,IC50,[25],6.65 µM (active)
same,IC50,[26],> 66 µM (inactive)
same,IC50,Vero [27],> 25 µM (active)
same,EC50,[28],31.8 µM (active)
same,AC50,[29],0.383 µM (active)
same,EC50,[30],> 32 µM (inactive)
same,EC50,Beta-galactosidase [31],> 40 µM (inactive)
same,EC50,[32],> 120 µM (not active)
same,IC50,[33],3.51 µM (active)
same,IC50,[34],> 32 µM (inactive)
same,IC50,[35],57.8 µM (inactive)
same,IC50,[36],> 32 µM
O=C(O)c1cc2ncccn2n1,IC50,[37],2.6 µM (active)
same,IC50,[38],1.73 µM (active)
O=C(Oc1ccc2c(=O)c(Oc3ccc4ccccc4c3)coc2c1)c1cncc(Br)c1,EC50,[39],22.2 µM (active)
CC(CN1CCOCC1)C(=O)O (centres undefined),EC50,[40],> 100 µM (inactive)
same,EC50,[41],> 100 µM (inactive)
